What was measured:
Type in all cases: in vivo
[1] = tested on: Amaranthus retoflexus (AMARE); test: Post-emergence biological efficacy, glasshouse pot test; conditions: Amaranthus retroflexus, 312 h; Rate 1,000 g/ha; post-emergence spray; evaluated after 13 days (100=total damage to plant; 0=no damage to plant); read-out: Percentage damage caused to weed species, post-emergence, AMARE
Method in brief: (§1)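 Pot-grown weeds were sprayed 8 days after sowing with test compound in acetone/water (50:50) with 0.5% Tween 20 at 1000 or 250 g/ha. Glasshouse at 24/16° C day/night, 14 h light, 65% humidity. Damage scored 0-100 (100 = total damage) after 13 days.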

[2] = tested on: Echinochloa crus-galli (ECHCG); test: as above; conditions: 312 h, Rate 1,000 g/ha, post-emergence spray, evaluated after 13 days (100=total damage to plant; 0=no damage to plant), read-out: Percentage damage caused to weed species, post-emergence, ECHCG
Method in brief: as §1

Solanum nigrum (SOLNI) [3] = test: as above; conditions: 312 h, Rate 1,000 g/ha, post-emergence spray, evaluated after 13 days (100=total damage to plant; 0=no damage to plant), read-out: Percentage damage caused to weed species, post-emergence, SOLNI
Method in brief: as §1

[4] = tested on: Alopecurus myosuroides (ALOMY); test: as above; conditions: 312 h, Rate 1,000 g/ha, post-emergence spray, evaluated after 13 days (100=total damage to plant; 0=no damage to plant), read-out: Percentage damage caused to weed species, post-emergence, ALOMY
Method in brief: as §1

Setaria faberi (SETFA) [5] = test: as above; conditions: 312 h, Rate 1,000 g/ha, post-emergence spray, evaluated after 13 days (100=total damage to plant; 0=no damage to plant), read-out: Percentage damage caused to weed species, post-emergence, SETFA
Method in brief: as §1

[6] = tested on: Ipomea hederaceae (IPOHE); test: as above; conditions: Ipomoea hederacea, 312 h; Rate 1,000 g/ha; post-emergence spray; evaluated after 13 days (100=total damage to plant; 0=no damage to plant); read-out: Percentage damage caused to weed species, post-emergence, IPOHE
Method in brief: as §1

[7] = tested on: Amaranthus retoflexus (AMARE); test: Pre-emergence biological efficacy, glasshouse pot test; conditions: Amaranthus retroflexus, 312 h; pre-emergence, rate 1,000 g/ha, evaluated after 13 days (100=total damage to plant; 0=no damage); read-out: Percentage damage caused to weed species, AMARE
Method in brief: (§2)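 Visual phytotoxicity (0 no damage, 100 total damage) assessed 13 d after treatment. Soil-sown pots sprayed one day post-sowing; dose 1000 or 250 g/ha; formulation in acetone/water 50:50, 0.5% Tween 20.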

[8] = tested on: Echinochloa crus-galli (ECHCG); test: as above; conditions: 312 h, pre-emergence, rate 1,000 g/ha, evaluated after 13 days (100=total damage to plant; 0=no damage), read-out: Percentage damage caused to weed species, ECHCG
Method in brief: as §2

Solanum nigrum (SOLNI) [9] = test: as above; conditions: 312 h, pre-emergence, rate 1,000 g/ha, evaluated after 13 days (100=total damage to plant; 0=no damage), read-out: Percentage damage caused to weed species, SOLNI
Method in brief: as §2

[10] = tested on: Alopecurus myosuroides (ALOMY); test: as above; conditions: 312 h, pre-emergence, rate 1,000 g/ha, evaluated after 13 days (100=total damage to plant; 0=no damage), read-out: Percentage damage caused to weed species, ALOMY
Method in brief: as §2

Setaria faberi (SETFA) [11] = test: as above; conditions: 312 h, pre-emergence, rate 1,000 g/ha, evaluated after 13 days (100=total damage to plant; 0=no damage), read-out: Percentage damage caused to weed species, SETFA
Method in brief: as §2

[12] = tested on: Ipomea hederaceae (IPOHE); test: as above; conditions: Ipomoea hederacea, 312 h; pre-emergence, rate 1,000 g/ha, evaluated after 13 days (100=total damage to plant; 0=no damage); read-out: Percentage damage caused to weed species, IPOHE
Method in brief: as §2

| Structure (SMILES) | pest or weed control at 1000 g/ha [1] [%] | pest or weed control at 1000 g/ha [2] [%] | pest or weed control at 1000 g/ha (Solanum nigrum (SOLNI) [3]) [%] | pest or weed control at 1000 g/ha [4] [%] | pest or weed control at 1000 g/ha (Setaria faberi (SETFA) [5]) [%] | pest or weed control at 1000 g/ha [6] [%] | pest or weed control at 1000 g/ha [7] [%] | pest or weed control at 1000 g/ha [8] [%] | pest or weed control at 1000 g/ha (Solanum nigrum (SOLNI) [9]) [%] | pest or weed control at 1000 g/ha [10] [%] | pest or weed control at 1000 g/ha (Setaria faberi (SETFA) [11]) [%] | pest or weed control at 1000 g/ha [12] [%] |
| --- | --- | --- | --- | --- | --- | --- | --- | --- | --- | --- | --- | --- |
| COC(=O)c1nc(-c2ccc(Cl)cc2C(F)(F)F)nc(NCc2ccco2)c1Cl [Compound 220-48, 5-Chloro-2-(4-chloro-2-trifluoromethyl-phenyl)-4-(furan-2-ylmethylamino)-6-methoxycarbonyl-pyrimidine] | 40 | 0 | 20 | 20 | 0 | 10 | 20 | 0 | 0 | 0 | 0 | 0 |
| COC(=O)c1nc(-c2ccc(Cl)c(C#N)c2)nc(NCc2ccco2)c1Cl [Compound 221-48, 5-Chloro-2-(4-chloro-3-cyanophenyl)-4-(furan-2-yl-methyl-amino)-6-methoxy-carbonylpyrimidine] | 80 | 30 | 80 | 10 | 30 | 40 | 60 | 0 | 0 | 0 | 0 | 0 |
| COC(=O)c1nc(-c2ccc(Cl)c(F)c2)nc(NCc2ccco2)c1Cl [Compound 222-48, 5-Chloro-2-(4-chloro-3-fluorophenyl)-4-(furan-2-ylmethyl-amino)-6-methoxycarbonyl-pyrimidine] | 100 | 40 | 90 | 30 | 40 | 80 | 100 | 50 | 100 | 30 | 20 | 70 |
| COC(=O)c1nc(-c2ccc(Cl)c(F)c2Cl)nc(NCc2ccco2)c1Cl [Compound 224-48, 5-Chloro-2-(2,4-dichloro-3-fluorophenyl)-4-(furan-2-ylmethyl-amino)-6-methoxy-carbonylpyrimidine] | 100 | 40 | 90 | 60 | 80 | 70 | 100 | 0 | 90 | 60 | 50 | 70 |
| COC(=O)c1nc(-c2ccc(Cl)c(F)c2F)nc(NCc2ccco2)c1Cl [Compound 225-48, 5-Chloro-2-(4-chloro-2,3-difluorophenyl)-4-(furan-2-ylmethyl-amino)-6-methoxy-carbonylpyrimidine] | 100 | 60 | 90 | 60 | 80 | 90 | 100 | 30 | 90 | 60 | 80 | 70 |
| COC(=O)c1nc(-c2ccc(Cl)c(Cl)c2F)nc(NCc2ccco2)c1Cl [Compound 226-48, 5-Chloro-2-(3,4-dichloro-2-fluorophenyl)-4-(furan-2-ylmethyl-amino)-6-methoxy-carbonylpyrimidine] | 100 | 60 | 90 | 50 | 80 | 60 | 100 | 30 | 100 | 50 | 40 | 30 |
| COC(=O)c1nc(-c2cc(Cl)c(Cl)cc2Cl)nc(NCc2ccco2)c1Cl [Compound 228-48, 5-Chloro-4-(furan-2-ylmethylamino)-6-methoxycarbonyl-2-(2,4,5-trichloro-phenyl)pyrimidine] | 70 | 0 | 30 | 20 | 20 | 10 | 30 | 0 | 0 | 0 | 0 | 0 |
| COC(=O)c1nc(-c2ccc(Cl)c(OC)c2)nc(NCc2ccco2)c1Cl [Compound 229-48, 5-Chloro-2-(4-chloro-3-methoxyphenyl)-4-(furan-2-ylmethyl-amino)-6-methoxy-carbonylpyrimidine] | 100 | 30 | 80 | 10 | 60 | 30 | 100 | 0 | 90 | 10 | 30 | 0 |
| COC(=O)c1nc(-c2ccc(Cl)c(C(F)(F)F)c2F)nc(NCc2ccco2)c1Cl [Compound 230-48, 5-Chloro-2-(4-chloro-2-fluoro-3-trifluoro-methylphenyl)-4-(furan-2-ylmethyl-amino)-6-methoxy-carbonylpyrimidine] | 100 | 90 | 80 | 30 | 70 | 60 | 70 | 20 | 70 | 30 | 50 | 50 |
| COC(=O)c1nc(-c2ccc(Cl)c(Cl)c2Cl)nc(NCc2ccco2)c1Cl [Compound 231-48, 5-Chloro-4-(furan-2-ylmethylamino)-6-methoxycarbonyl-2-(2,3,4-trichloro-phenyl)pyrimidine] | 100 | 30 | 80 | 50 | 70 | 70 | 100 | 30 | 40 | 40 | 20 | 10 |
